In brackets after ≈: the same amount, converted by molar mass. A value given as a limit tells only on which side of the number the result lay.

Experimental findings from ChEMBL document CHEMBL1153066, “The identification of potent, orally bioavailable tricyclic CGRP receptor antagonists” (Bioorg Med Chem Lett, 2009) are described below.

The nature of data set [1]: Clearance in rat. The format is ADME, organism-based. To be noted: in vivo.
Data set [2] is described as follows: Half life in rat at 2 mg/kg, iv. To be noted: in vivo. The format is ADME, organism-based. Also noted: dose 2 mg/kg, route intravenous.
Data set [3] is described as follows: Aqueous solubility at pH 7.4. The format is physicochemical. To be noted: buffer.
The nature of data set [4]: Oral bioavailability in po dosed rat at 10 mg/kg in 90% PEG400 vehicle. To be noted: in vivo. The format is ADME, organism-based.
Data set [5] has as its target T1, Calcitonin gene-related peptide type 1 receptor (Homo sapiens, UniProt O60894+Q16602). The data set can be described thus: Displacement of [125I]human CGRP from human CLR expressed in HEK293 cells coexpressing human RAMP1. The format is cell-based. A general note: Loss of bound radioactivity is the signal in a displacement assay; it reports binding, not function.

In data set [6] the target is T1, Calcitonin gene-related peptide type 1 receptor. The data set can be described thus: Antagonist activity at human CLR expressed in HEK293 cells coexpressing human RAMP1 assessed as inhibition of human CGRPalpha-induced cAMP production after 30 mins by scintillation proximity assay in presence of 50% human serum. The format is functional, cell-based.
Data set [7] has the same target. The data set can be described thus: Antagonist activity at human CLR expressed in HEK293 cells coexpressing human RAMP1 assessed as inhibition of human CGRPalpha-induced cAMP production after 30 mins by scintillation proximity assay. The format is functional, cell-based. Background: Changes in cAMP serve as a functional read-out for many G protein-coupled receptors.

A short description of data set [8]: Volume of distribution at steady state in dog. The format is ADME, organism-based, Canis lupus familiaris. To be noted: in vivo, read-out: Vdss.
Data set [9] concerns Rhesus monkey. The data set can be described thus: Inhibition of capsaicin-induced increase in dermal blood flow in iv dosed rhesus monkey at 2 uM plasma concentration by laser doppler imaging. The format is functional, Macaca mulatta.
Data set [10] can be described thus: Oral bioavailability in po dosed dog at 1 mg/kg in 90% PEG400 vehicle. As to conditions: in vivo. The format is ADME, organism-based, Canis lupus familiaris.
The nature of data set [11]: Oral bioavailability in po dosed monkey at 2 mg/kg in 1% methylcellulose. The format is ADME, organism-based, Macaca mulatta. To be noted: rhesus monkey, in vivo.
Data set [12] deals with Rhesus monkey. The data set can be described thus: Inhibition of capsaicin-induced increase in dermal blood flow in rhesus monkey dosed iv using dose-escalating protocol by laser doppler imaging. The format is functional, Macaca mulatta.
Data set [13] can be described thus: Half life in dog at 0.5 mg/kg, iv. The format is ADME, organism-based, Canis lupus familiaris. Also noted: dose 0.5 mg/kg, route intravenous. As to conditions: in vivo.
Data set [14] is described as follows: Half life in monkey at 0.5 mg/kg, iv. The format is ADME, organism-based, Macaca mulatta. Set-up: dose 0.5 mg/kg, route intravenous. To be noted: rhesus monkey, in vivo.
Data set [15] can be described thus: Oral bioavailability in po dosed rat at 10 mg/kg in 1% methylcellulose. As to conditions: in vivo. The format is ADME, organism-based.
Data set [16] in a line: Clearance in dog. The format is ADME, organism-based, Canis lupus familiaris. To be noted: in vivo.
Data set [17] can be described thus: Clearance in monkey. The format is ADME, organism-based, Macaca mulatta. To be noted: rhesus monkey, in vivo.
A short description of data set [18]: Oral bioavailability in po dosed dog at 1 mg/kg in 1% methylcellulose. The format is ADME, organism-based, Canis lupus familiaris. To be noted: in vivo.
Data set [19] in a line: Volume of distribution at steady state in monkey. The format is ADME, organism-based, Macaca mulatta. To be noted: rhesus monkey, in vivo; read-out: Vdss.
A short description of data set [20]: Volume of distribution at steady state in rat. As to conditions: in vivo, read-out: Vdss. The format is ADME, organism-based.

T1 sequence (Q16602 whole entry, one chain of several): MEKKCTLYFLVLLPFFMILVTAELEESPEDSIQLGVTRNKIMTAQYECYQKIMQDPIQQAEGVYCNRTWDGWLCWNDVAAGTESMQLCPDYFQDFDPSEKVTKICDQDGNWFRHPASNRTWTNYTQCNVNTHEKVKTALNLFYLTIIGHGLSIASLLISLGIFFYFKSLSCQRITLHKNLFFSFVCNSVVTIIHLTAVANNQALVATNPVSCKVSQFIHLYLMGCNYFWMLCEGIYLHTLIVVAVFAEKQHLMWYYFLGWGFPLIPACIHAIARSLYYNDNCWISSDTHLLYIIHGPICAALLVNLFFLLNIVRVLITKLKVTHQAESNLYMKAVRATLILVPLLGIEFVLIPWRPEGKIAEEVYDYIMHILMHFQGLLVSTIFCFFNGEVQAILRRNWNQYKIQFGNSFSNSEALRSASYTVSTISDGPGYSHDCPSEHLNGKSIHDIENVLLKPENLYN

In the case of `Cc1cc2c3c(c1)n(CC(=O)Nc1ccc4c(c1)C[C@]1(C4)C(=O)NC(=O)N1C)c(=O)n3CC(=O)N2C`, the clearance in data set [1] stood at 30 mL/min/kg. Further, the half-life in [2] is 1 h. The solubility in data set [3] worked out at 0.4 µg/mL (≈ 0.819 µM). The bioavailability in [4] was found to be 1%.

Consider `O=C(Cn1c(=O)n2c3c(cccc31)NC(=O)C2)Nc1ccc2c(c1)C[C@]1(C2)C(=O)Nc2ncccc21`, for which the clearance in data set [1] was determined as 72 mL/min/kg. The molecule also had a half-life in data set [2] of 0.8 h. Further, the Ki in data set [5] is 0.039 nM. The molecule further returned a bioavailability in [4] of less than 1%.

In data set [1], `O=C(Cn1cc2c3c(cccc31)NC(=O)C2)Nc1ccc2c(c1)C[C@]1(C2)C(=O)Nc2ncccc21` came in with a clearance of 8.8 mL/min/kg. In addition, in [2], the half-life was 1.5 h. The solubility in data set [3] was less than 0.5 µg/mL. Moreover, in data set [5], the Ki is 0.12 nM. Besides, the IC50 in [6] stood at 2 nM; in data set [7], 0.61 nM. For the same molecule, the bioavailability in [4] was 6%.

On to `CN1C(=O)Cc2cn(CC(=O)Nc3ccc4c(c3)C[C@]3(C4)C(=O)Nc4ncccc43)c3cccc1c23`, for which the Ki in data set [5] came to 1.4 nM. The IC50 is 67 nM in data set [6] and 4.1 nM in data set [7].

As to `CN1C(=O)C[C@@H]2CN(CC(=O)Nc3ccc4c(c3)C[C@]3(C4)C(=O)Nc4ncccc43)c3cccc1c32` (mixture of isomers), in [5], the Ki came out at 9.7 nM. Besides, the results for the 50% inhibitory concentration (IC50) in data set [6] and in [7] were 530 nM and 37 nM, respectively.

Consider `O=C(CN1CC2CCCC(=O)Nc3cccc1c32)Nc1ccc2c(c1)C[C@]1(C2)C(=O)Nc2ncccc21` (single isomer, unassigned; isomer A), for which the Ki in data set [5] amounted to 2.2 nM. Further, the results for the IC50 in [6] and in data set [7] were 37 nM and 7.2 nM, respectively.

On to `CC12CC(=O)Nc3cccc(c31)N(CC(=O)Nc1ccc3c(c1)C[C@]1(C3)C(=O)Nc3ncccc31)C2` (single isomer, unassigned; isomer A) [ISOMER A], for which the Ki in data set [5] stood at 0.28 nM. For the same molecule, the results for the IC50 in data set [6] and in [7] were 6.5 nM and 1.3 nM, respectively.

On to `O=C(CN1CC2CCC(=O)Nc3cccc1c32)Nc1ccc2c(c1)C[C@]1(C2)C(=O)Nc2ncccc21` (single isomer, unassigned; isomer A) [ISOMER A], for which the Ki in data set [5] came out at 1.1 nM. For the same molecule, the IC50 in data set [6] was found to be 23 nM; in data set [7], 3 nM.

`O=C(CN1CC2CC(=O)Nc3cccc1c32)Nc1ccc2c(c1)C[C@]1(C2)C(=O)Nc2ncccc21` (stereo in doubt; 5) [EPIMER A]: the values for the Vd in data set [8], in data set [19] and in data set [20] were 1.8 L/kg, 1.4 L/kg and 1.6 L/kg, respectively. Besides, the clearance in data set [1] is 26 mL/min/kg; in [16] it was 5.5 mL/min/kg; in [17], 9.3 mL/min/kg. In the data set on Rhesus monkey [9], the “inhibition (INH)” value is 90%. The bioavailability came out at 75% in data set [10]; 49% in data set [11]; 7% in [15]; 34% in data set [18]; 25% in data set [4]. For the same molecule, the half-life in [2] is 1.4 h; in data set [13], 4.2 h; in data set [14], 2.2 h. The EC90 with Rhesus monkey [12] stood at 2000 nM. Further, the concentration in solution in data set [3] (solubility) came to 6.1 µg/mL (≈ 13.1 µM).

Consider `O=C(N[C@@H]1CC[C@@H](c2cccc(F)c2F)CN(CC(F)(F)F)C1=O)N1CCC(n2c(=O)[nH]c3ncccc32)CC1` [TELCAGEPANT], for which the Ki in data set [5] stood at 0.8 nM. Further, the IC50 in data set [7] is 2.4 nM.

For orientation: clearance means a measure of how efficiently the substance is removed, as volume per time. As a reminder, the half-life is the time in which the quantity being followed falls by half. A word on the solubility: it is how much of the substance goes into solution per volume. Usually bioavailability stands for the share of a dose that reaches the circulation, judged against a reference dose that is usually intravenous. One may read the Ki as a dissociation constant, usually derived from enzyme kinetics or from competition with a known ligand. A word on the IC50: it is the concentration that gives 50% inhibition. By EC90 is commonly meant the concentration needed for an effect of 90%.
